The values that follow come from patent US20210009613A1, “ARYLPHOSPHINE OXIDES FOR INHIBITING KINASE ACTIVITY” (Shenzhen TargetRx, Inc., priority 2017, published 2021).

Test [1] deals with I1171N/T/S. As to conditions: Crizotinib-resistant mutation; cited from earlier work.
Test [2] deals with G1202R (Homo sapiens, UniProt Q9UM73, G1202R). The note with it: Crizotinib-resistant mutation; cited from earlier work.
In test [3] the test system is F1174C/V. The note with it: Crizotinib-resistant mutation; cited from earlier work.
Test [4] has as its system Ba/F3 [EML4-ALK L1196M]. Kind of test: Cytotoxicity test (CellTiter-Glo), Ba/F3 [EML4-ALK L1196M]. It counts as cell-based. The note with it: ratio of Ba/F3 IC50 values. The method, then:
(§1) The in vitro anti-proliferative activity of the compounds of the present disclosure against three types of cells that are cultured in vitro was tested by CellTiter-Glo method.
(§2) Cell lines: Ba/F3 parental; Ba/F3 [EML4-ALK] (From WuXi PharmaTech) and Ba/F3 [EML4-ALK L1196M] (From WuXi PharmaTech); wherein, Ba/F3 parental was cultured in RPMI1640 medium containing 10 ng/ml IL-3, […], 100 U/ml penicillin, and 100 μg/ml streptomycin, Ba/F3 [EML4-ALK] and Ba/F3 [EML4-ALK L1196M] were cultured in RPMI1640 medium containing 10% fetal bovine serum, 100 U/ml penicillin, and 100 μg/ml streptomycin.
(§3) Reagents and materials: RPMI-1640 (GIBCO, Cat. No. A10491-01); fetal bovine serum (GIBCO, Cat. No. 10099141); 0.25% trypsin-EDTA (GIBCO, Cat. No. 25200); penicillin-streptomycin, liquid (GIBCO, Cat. No. 15140-122); DMSO (Sigma, Cat. No. D2650); CellTiter-Glo Test Kit (Promega, Cat. No. G7572), and 96-well plate (Corning, Cat. No. 3365).
(§4) Specific experimental procedures: • 1. The test compounds were dissolved in DMSO to make stock solutions and subjected to a series gradient dilution to give solutions with 10-fold working concentration. • 2. The cells in the logarithmic growth phase were diluted with the culture solution to adjust to the specific cell concentration, 90 μl of cell suspension was added to the 96-well plate to make the cell density reach the specified concentration. The plate was incubated in a incubator at 37° C., containing 5% carbon dioxide gas overnight. • 3. 10 μl drug solutions were added to each well of the 96-well plate inoculated with cells. 10 concentrations of the compounds were tested starting from the highest concentration of 20 μM with a 3-fold series gradient dilution in duplicate. • 4. After continuously cultured for 72 hours, the cells were detected by CellTiter-Glo for the cell viability. The dose-effect curve was made using GraphPad Prism software and IC50 was calculated.

Test [5] concerns the target T1, Ba/F3 [EML4-ALK L1196M] (Homo sapiens, UniProt Q9UM73, L1196M, cells depend on it).
T1 construct: IC50(nM) ALK[L1196M]; (Ba/F3); other: 72 hours, CellTiter-Glo; Ba/F3 [EML4-ALK L1196M]; fused on or other part: Q9HC35 (Echinoderm microtubule-associated protein-like 4)
Described as above. In kind it is cell-based. The note with it: 72 hours, CellTiter-Glo; read-out: IC50(nM) ALK[L1196M] (Ba/F3). The method, then:
as §1, §2, §3, §4

The test system of test [6] is Ba/F3 parental. Kind of test: Cytotoxicity test (CellTiter-Glo), Ba/F3 parental. It counts as cell-based. The note with it: Mus musculus, BaF3, 72 hours. The method, then: as §1, §2, §3, §4
A general note: In ATP-based viability assays light output follows the ATP content of the culture.

The target of test [7] is ALK [L1196M] (Homo sapiens, UniProt Q9UM73, L1196M). Kind of test: Kinase inhibition assay, ALK [L1196M]. In kind it is biochemical. As for the experimental part: (§5) Compound preparation: The test compounds were dissolved in DMSO to make 20 mM stock solutions. The compounds were diluted in DMSO to 0.1 mM (a dilution with 100 times the final concentration) before use, and a 3-fold series gradient dilution with 11 concentrations was made. Dilutions with 4 times of the final concentration were prepared by diluting with buffer when dosing.
(§6) Kinase assay: after preparing the buffer solution, the enzyme was mixed with pre-diluted compounds with different concentrations, and placed at room temperature for 30 minutes in duplicate. The corresponding substrate and ATP were added thereto and reacted at room temperature for 60 minutes (both a negative and a positive control were set). After the reaction, antibody was added for detection, and after incubation at room temperature for 60 minutes, Evnvision detection was carried out, and data was collected. Data was analyzed and fit according to XLfit5 software. IC50 was calculated by the following formula: (IC50=[(ABS test-ABS begin)/(ABS control-ABS begin)]×100).

Test [8] relates to Ba/F3 [EML4-ALK]. Kind of test: Cytotoxicity test (CellTiter-Glo), Ba/F3 [EML4-ALK]. It counts as cell-based. As to conditions: ratio of Ba/F3 IC50 values. As for the experimental part:
as §1, §2, §3, §4

Test [9] addresses T2, Ba/F3 [EML4-ALK] (Homo sapiens, UniProt Q9UM73).
T2 construct: IC50(nM) ALK (Ba/F3); other: 72 hours, CellTiter-Glo; Ba/F3 [EML4-ALK]; fused on or other part: Q9HC35 (Echinoderm microtubule-associated protein-like 4)
The test is described as above. The note with it: 72 hours, CellTiter-Glo; read-out: IC50(nM) ALK (Ba/F3). In kind it is cell-based. The method, then:
as §1, §2, §3, §4

Test [10] concerns the target ALK [WT] (Homo sapiens, UniProt Q9UM73). Put plainly: Kinase inhibition assay, ALK [WT]. It counts as biochemical. The method, then: as §5, §6

ALK [WT], sequence (Q9UM73 19-1620): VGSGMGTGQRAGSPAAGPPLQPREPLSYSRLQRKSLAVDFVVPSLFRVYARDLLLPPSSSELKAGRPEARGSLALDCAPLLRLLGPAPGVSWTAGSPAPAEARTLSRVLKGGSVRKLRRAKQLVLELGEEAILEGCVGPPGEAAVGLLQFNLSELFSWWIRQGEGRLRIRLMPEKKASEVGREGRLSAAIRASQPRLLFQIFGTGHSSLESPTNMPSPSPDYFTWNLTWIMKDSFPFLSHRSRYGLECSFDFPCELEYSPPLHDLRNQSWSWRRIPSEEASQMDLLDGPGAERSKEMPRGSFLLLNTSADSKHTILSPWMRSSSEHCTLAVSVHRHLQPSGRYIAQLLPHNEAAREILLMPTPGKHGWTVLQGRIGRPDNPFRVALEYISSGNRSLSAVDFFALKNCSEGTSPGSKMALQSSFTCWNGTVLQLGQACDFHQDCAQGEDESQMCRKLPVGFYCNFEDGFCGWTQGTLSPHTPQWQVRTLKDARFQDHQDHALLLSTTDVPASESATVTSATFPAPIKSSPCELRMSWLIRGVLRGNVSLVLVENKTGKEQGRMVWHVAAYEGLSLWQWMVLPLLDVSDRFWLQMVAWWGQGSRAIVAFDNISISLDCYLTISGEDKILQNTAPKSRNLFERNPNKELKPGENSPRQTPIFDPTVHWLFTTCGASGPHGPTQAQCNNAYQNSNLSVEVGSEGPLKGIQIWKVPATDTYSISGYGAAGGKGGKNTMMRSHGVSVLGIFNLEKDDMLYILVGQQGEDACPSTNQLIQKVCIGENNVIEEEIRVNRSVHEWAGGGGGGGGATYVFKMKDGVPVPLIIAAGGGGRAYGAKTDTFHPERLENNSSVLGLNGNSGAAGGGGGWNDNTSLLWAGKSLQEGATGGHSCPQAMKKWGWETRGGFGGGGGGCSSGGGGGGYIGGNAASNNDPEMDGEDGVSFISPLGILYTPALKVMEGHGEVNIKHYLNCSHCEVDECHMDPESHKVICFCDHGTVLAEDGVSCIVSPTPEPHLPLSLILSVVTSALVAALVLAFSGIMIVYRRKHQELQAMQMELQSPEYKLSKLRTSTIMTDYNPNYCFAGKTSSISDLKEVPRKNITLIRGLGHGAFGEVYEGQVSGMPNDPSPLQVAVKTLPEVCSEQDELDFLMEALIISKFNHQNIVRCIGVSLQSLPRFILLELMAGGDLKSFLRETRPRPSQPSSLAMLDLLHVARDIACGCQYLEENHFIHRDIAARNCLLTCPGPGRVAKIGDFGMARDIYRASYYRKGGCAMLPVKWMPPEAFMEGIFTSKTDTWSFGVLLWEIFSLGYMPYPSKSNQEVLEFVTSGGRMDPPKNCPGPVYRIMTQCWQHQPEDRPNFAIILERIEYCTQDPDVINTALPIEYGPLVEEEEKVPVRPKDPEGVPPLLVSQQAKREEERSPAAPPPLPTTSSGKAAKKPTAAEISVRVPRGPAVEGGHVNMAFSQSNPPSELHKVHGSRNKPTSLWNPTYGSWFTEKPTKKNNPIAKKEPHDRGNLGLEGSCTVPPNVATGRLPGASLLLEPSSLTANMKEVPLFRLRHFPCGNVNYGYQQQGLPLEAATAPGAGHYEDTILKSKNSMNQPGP
T1 sequence (Q9UM73 whole entry L1196M, the tested form may be a part): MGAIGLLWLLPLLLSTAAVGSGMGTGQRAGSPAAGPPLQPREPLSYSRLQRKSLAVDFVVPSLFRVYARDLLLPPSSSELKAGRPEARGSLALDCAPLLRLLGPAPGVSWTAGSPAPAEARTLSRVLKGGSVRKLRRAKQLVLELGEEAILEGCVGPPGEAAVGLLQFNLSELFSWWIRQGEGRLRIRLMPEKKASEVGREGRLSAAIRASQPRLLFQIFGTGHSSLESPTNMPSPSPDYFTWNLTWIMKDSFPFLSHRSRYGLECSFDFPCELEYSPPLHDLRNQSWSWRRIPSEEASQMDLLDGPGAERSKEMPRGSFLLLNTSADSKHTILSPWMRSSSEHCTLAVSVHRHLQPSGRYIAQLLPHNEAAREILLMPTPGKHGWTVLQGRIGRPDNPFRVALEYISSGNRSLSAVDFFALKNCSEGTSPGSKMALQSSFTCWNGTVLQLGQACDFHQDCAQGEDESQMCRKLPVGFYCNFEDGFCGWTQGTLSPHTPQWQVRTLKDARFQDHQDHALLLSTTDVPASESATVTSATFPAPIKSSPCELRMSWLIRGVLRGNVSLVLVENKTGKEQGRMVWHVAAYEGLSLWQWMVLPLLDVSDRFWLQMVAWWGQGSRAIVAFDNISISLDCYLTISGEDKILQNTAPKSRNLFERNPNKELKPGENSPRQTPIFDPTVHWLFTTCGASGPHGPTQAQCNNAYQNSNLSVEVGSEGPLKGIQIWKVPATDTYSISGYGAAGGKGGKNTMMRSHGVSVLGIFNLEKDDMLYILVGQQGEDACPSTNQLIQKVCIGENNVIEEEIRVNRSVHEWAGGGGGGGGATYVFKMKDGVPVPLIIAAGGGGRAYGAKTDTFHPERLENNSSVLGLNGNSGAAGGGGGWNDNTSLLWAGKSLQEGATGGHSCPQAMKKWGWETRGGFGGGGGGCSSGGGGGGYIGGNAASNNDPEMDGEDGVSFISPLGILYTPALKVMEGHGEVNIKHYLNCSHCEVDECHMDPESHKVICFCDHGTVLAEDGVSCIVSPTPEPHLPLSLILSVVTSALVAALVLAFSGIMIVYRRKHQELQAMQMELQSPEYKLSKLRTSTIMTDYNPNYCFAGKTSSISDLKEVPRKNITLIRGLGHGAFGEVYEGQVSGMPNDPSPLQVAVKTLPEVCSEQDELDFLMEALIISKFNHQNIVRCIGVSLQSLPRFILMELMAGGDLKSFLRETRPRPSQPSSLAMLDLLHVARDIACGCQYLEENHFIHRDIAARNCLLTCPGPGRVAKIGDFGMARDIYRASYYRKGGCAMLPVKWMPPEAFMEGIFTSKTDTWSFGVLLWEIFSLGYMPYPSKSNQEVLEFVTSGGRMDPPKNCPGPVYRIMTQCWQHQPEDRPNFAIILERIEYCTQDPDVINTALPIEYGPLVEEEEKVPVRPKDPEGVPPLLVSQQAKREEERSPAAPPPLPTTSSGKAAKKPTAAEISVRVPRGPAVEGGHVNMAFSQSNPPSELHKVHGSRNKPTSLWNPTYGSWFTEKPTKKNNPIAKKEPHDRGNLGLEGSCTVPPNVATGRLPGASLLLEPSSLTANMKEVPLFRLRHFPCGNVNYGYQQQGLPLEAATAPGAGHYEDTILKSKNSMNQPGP
ALK [L1196M], sequence (Q9UM73 19-1620 L1196M): as the sequence (Q9UM73 19-1620) above, with L1178M counted along it
T2 sequence (Q9UM73 whole entry, change not shown, the tested form may be a part): as the sequence (Q9UM73 whole entry L1196M, the tested form may be a part) above, with M1196L counted along it
G1202R, sequence (Q9UM73 19-1620 G1202R): as the sequence (Q9UM73 19-1620) above, with G1184R counted along it

As for `CCc1cc2c(cc1N1CCC(N3CCOCC3)CC1)C(C)(C)c1[nH]c3cc(C#N)ccc3c1C2=O` [Alectinib], in test [1], the “effect on I1171N/T/S” value is “no effect”.
For the molecule `Cc1cc(Nc2ncc(Cl)c(Nc3ccccc3S(=O)(=O)C(C)C)n2)c(OC(C)C)cc1C1CCNCC1` [Ceritinib], the “effect on G1202R” value in test [2] is “neither of them has effect”. Moreover, in [3], the “effect on F1174C/V” value is reported as “no effect”.
`CNCCc1ccc(Nc2ncc(Cl)c(Nc3ccccc3P(C)(C)=O)n2)c(OCC(F)(F)F)n1` [Example 18, (2-((5-chloro-2-((6-(2-(methylamino)ethyl)-2-(2,2,2-trifluoroethoxy)pyridin-3-yl)amino)pyrimidin-4-yl)amino)phenyl)dimethylphosphine oxide]: in test [4], the “Selectivity parental/ALK[L1196M]” value is on record as 0~50. In addition, the GI50 in [5] and in test [9] was 100 to 400 nM each time. The concentration for half-maximal inhibition (IC50) (usually the concentration at which inhibition is half-maximal) in [6] was no less than 1000 nM; in test [7], 50 to 100 nM; in test [10] it was 10 to 50 nM. Also, in test [8], the “Selectivity parental/ALK” value is 50~100.
For the molecule `CC(C)Oc1nc(N2CCC(N(C)C)CC2)ccc1Nc1ncc(Cl)c(Nc2ccccc2P(C)(C)=O)n1` [Example 5, (2-((5-chloro-2-((6-(4-(dimethyaminono)piperidin-1-yl)-2-isopropoxypyridin-3-yl)amino)pyrimidin-4-yl)amino)phenyl)dimethylphosphine oxide], the “Selectivity parental/ALK[L1196M]” value in test [4] was 50~100. Besides, the GI50 is 50 to 100 nM in test [5] and no more than 50 nM in [9]. Moreover, the IC50 in test [6] is no less than 1000 nM; in test [7] it was no more than 5 nM; in test [10], 5 to 10 nM. For the same molecule, the “Selectivity parental/ALK” value in test [8] is listed as 100~200.
As for `CN(C)CCN(C)c1ccc(Nc2ncc(Cl)c(Nc3ccccc3P(C)(C)=O)n2)c(OCC(F)(F)F)n1` [Example 11, (2-((5-chloro-2-((6-((2-(dimethylamino)ethyl)(methyl)amino)-2-(2,2,2-trifluoroethoxy)pyridin-3-yl)amino)pyrimidin-4-yl)amino)phenyl)dimethylphosphine oxide], in test [4], the “Selectivity parental/ALK[L1196M]” value was 50~100. Also, the figures for the GI50 in [5] and in [9] were 100 to 400 nM and 50 to 100 nM, respectively. The half-maximal inhibitory concentration (IC50) in test [6] is no less than 1000 nM; in [7], 10 to 50 nM; in [10] it was no more than 5 nM. In addition, the “Selectivity parental/ALK” value in test [8] is 100~200.
As for `COc1nc(N(C)CCN(C)C)ccc1Nc1ncc(Cl)c(Nc2ccccc2P(C)(C)=O)n1` [Example 3, (2-((5-chloro-2-((6-((2-(dimethylamino)ethyl)(methyl)amino)-2-methoxypyridin-3-yl)amino)pyrimidin-4-yl)amino)phenyl)dimethylphosphine oxide], in [4], the “Selectivity parental/ALK[L1196M]” value was 50~100. Moreover, the GI50 was 50 to 100 nM in test [5] and no more than 50 nM in test [9]. For the same molecule, the 50% inhibitory concentration (IC50) was no less than 1000 nM in test [6], 5 to 10 nM in test [7] and no more than 5 nM in [10]. For the same molecule, in test [8], the “Selectivity parental/ALK” value is recorded as 100~200.
Regarding `CC(C)Oc1nc(N(C)CCN(C)C)ccc1Nc1ncc(Cl)c(Nc2ccccc2P(C)(C)=O)n1` [Example 7, (2-((5-chloro-2-((6-((2-(dimethylamino)ethyl)(methyl)amino)-2-isopropoxypyridin-3-yl)amino)pyrimidin-4-yl)amino)phenyl)dimethylphosphine oxide], the “Selectivity parental/ALK[L1196M]” value in [4] is on record as 50~100. The GI50 in test [5] is 50 to 100 nM; in [9], no more than 50 nM. In addition, the values for the IC50 in [6], in test [7] and in test [10] were no less than 1000 nM, 5 to 10 nM and 10 to 50 nM, respectively. The “Selectivity parental/ALK” value in [8] is on record as 200~400.
Regarding `CC(C)Oc1nc(N2CCC(N3CCN(C)CC3)CC2)ccc1Nc1ncc(Cl)c(Nc2ccccc2P(C)(C)=O)n1` [Example 8, (2-((5-chloro-2-((2-isopropoxy-6-(4-(4-methylpiperazin-1-yl)piperidin-1-yl)pyridin-3-yl)amino)pyrimidin-4-yl)amino)phenyl)dimethyl phosphine oxide], in [4], the “Selectivity parental/ALK[L1196M]” value is 50~100. Further, the GI50 in test [5] was 100 to 400 nM; in test [9] it was no more than 50 nM. The IC50 in test [6] was no less than 1000 nM; in test [7], 5 to 10 nM; in test [10], 5 to 10 nM. Moreover, the “Selectivity parental/ALK” value in test [8] is 200~400.
As to `CN(C)CCc1ccc(Nc2ncc(Cl)c(Nc3ccccc3P(C)(C)=O)n2)c(OCC(F)(F)F)n1` [Example 19, (2-((5-chloro-2-((6-(2-(dimethylamino)ethyl)-2-(2,2,2-trifluoroethoxy)pyridin-3-yl)amino)pyrimidin-4-yl)amino)phenyl)dimethylphosphine oxide], the “Selectivity parental/ALK[L1196M]” value in [4] was 50~100. The GI50 in test [5] lay within 100 to 400 nM; in [9] it was 50 to 100 nM. Moreover, the 50% inhibitory concentration (IC50) is no less than 1000 nM in [6], 50 to 100 nM in test [7] and 10 to 50 nM in test [10]. The “Selectivity parental/ALK” value in [8] was 100~200.
In the case of `CN1CCN(C2CCN(c3ccc(Nc4ncc(Cl)c(Nc5ccccc5P(C)(C)=O)n4)c(OCC(F)(F)F)n3)CC2)CC1` [Example 12, (2-((5-chloro-2-((6-(4-(4-methylpiperazin-1-yl)piperidin-1-yl)-2-(2,2,2-trifluoroethoxy)pyridin-3-yl)amino)pyrimidin-4-yl)amino)phenyl)dimethylphosphine oxide], the “Selectivity parental/ALK[L1196M]” value in [4] is 0~50. In addition, the GI50 in test [5] is 50 to 100 nM; in test [9], no more than 50 nM. For the same molecule, the IC50 was no less than 1000 nM in [6], 10 to 50 nM in test [7] and 5 to 10 nM in test [10]. The “Selectivity parental/ALK” value in test [8] is 111.30.
